Experimental findings from ChEMBL document CHEMBL1126985, “Brush-border-enzyme-mediated intestine-specific drug delivery. Amino acid prodrugs of 5-aminosalicylic acid” (J Med Chem, 1993) are described below.

Data set [1] is filed under the species Rattus norvegicus. The experiment in a line: Fecal recovery in colostomized rats at 2 hr intervals for 48 h. Type of data set: functional.
The species entered for data set [2] is Rattus norvegicus. The experiment in a line: Fecal recovery in non-colostomized rats at 2 hr intervals for 48 h. Type of data set: functional.
Data set [3] is described as follows: Half-life was determined by hydrolysis of compound in a solution of peptidases. Format: ADME.
Data set [4] is filed under the species Rattus norvegicus. The data set can be described thus: Urinary recovery in colostomized rats at 2 hr intervals for 48 h. Format: functional, Urine.
The species entered for data set [5] is Rattus norvegicus. The data set can be described thus: Urinary recovery in non-colostomized rats at 2 hr intervals for 48 h. Type of data set: functional, Urine.

For the compound `N[C@@H](CCC(=O)[O-])C(=O)Nc1ccc(O)c(C(=O)[O-])c1.[Na+].[Na+]`, the values for the Fecal recovery in the data set filed under Rattus norvegicus [1] and in the data set listed under Rattus norvegicus [2] were 44.2% and 44.29%, respectively. In data set [3], this compound came in with a half-life of 1.35 h. The Urinary recovery amounted to 31.83% in the data set listed under Rattus norvegicus [4] and 32.42% in the data set listed under Rattus norvegicus [5].

On to `N[C@@H](CC(=O)[O-])C(=O)Nc1ccc(O)c(C(=O)[O-])c1.[Na+].[Na+]`, for which the Fecal recovery in the data set filed under Rattus norvegicus [1] turned out to be 35.73%; in the data set filed under Rattus norvegicus [2] it was 34.2%. In addition, the Urinary recovery in the data set filed under Rattus norvegicus [4] is given as 32.66%; in the data set listed under Rattus norvegicus [5] it was 30.09%.

Consider `O=C(O)c1cc(/N=N/c2ccc(S(=O)(=O)Nc3ccccn3)cc2)ccc1O` [SULFASALAZINE], for which the Fecal recovery in the data set listed under Rattus norvegicus [1] was found to be 37.77%; in the data set listed under Rattus norvegicus [2] it was 38.9%. Further, the Urinary recovery in the data set filed under Rattus norvegicus [4] stood at 33.34%; in the data set filed under Rattus norvegicus [5] it was 32.21%.

For `Nc1ccc(O)c(C(=O)O)c1` [MESALAMINE], the figures for the Fecal recovery in the data set listed under Rattus norvegicus [1] and in the data set listed under Rattus norvegicus [2] were 5.08% and 4.32%, respectively. Also, the Urinary recovery in the data set filed under Rattus norvegicus [4] stood at 69.61%; in the data set filed under Rattus norvegicus [5] it was 78.84%.
